# Reference: patent US6632807B1, “(2R,4S)-(−)-[N-(4-diethoxyphosphorylmethyl)phenyl]-1,2,4,5- tetrahydro-4-methyl-7,8-methylenedioxy-5-oxo-3-benzothiepin-2-carboxamide” (Takeda Chemical Industries, Ltd., priority 1994, dated 2003)
# How the values were obtained:
# [1] = system: stromal cells prepared from the femoral bone marrow of a normal rat; experiment: Osteogenesis-promoting action: alkaline phosphatase activity in rat bone marrow stromal cells; assay type: cell-based; details: 10 to 14 days cultivation, mean ±SE, control 113.7 ± 8.1
# Procedure: Using stromal cells prepared from the femoral bone marrow of a normal rat, alkaline phosphatase activity was determined as an index of osteogenesis. Specifically, stromal cells, prepared from the femoral bone marrow of a 7-week-old male Sprague-Dawley rat by the method of Maniatopoulos et al. [Cell Tissue Research, Vol. 254, p. 317 (1988)], were cultured in an α-MEM (minimum essential medium) solution containing both dexamethasone (10^−7 M) and β-glycerophosphoric acid (10^−2 M) to obtain mineralized bone-like tissue. One week later, the test compound (10^−6 M or 10^−5 M) was added to the confluent cells, followed by 10 to 14 more days of cultivation in the above culture broth. After washing with phosphate buffer, the cells were homogenized with 0.2% Nonidet P-40 and centrifuged at 3,000 rpm for 10 minutes. The resulting supernatant was assayed for alkaline phosphatase activity by the method of Lowry et al. [Journal of Biological Chemistry, Vol. 207, p. 19 (1954)]. The values obtained are given in mean ±SE in Table 1. The data were statistically analyzed by Student's t-test.
melting point [°C],SMILES,Alkaline Phosphatase Activity ([1]; test compound 10^−5 M),Alkaline Phosphatase Activity ([1]; test compound 10^−6 M)
198 to 199,COP(=O)(Cc1ccc(NC(=O)[C@H]2Cc3cc4c(cc3C(=O)[C@H](C)S2)OCO4)cc1)OC,,
183 to 184,CCOP(=O)(Cc1ccc(NC(=O)[C@@H]2Cc3cc4c(cc3C(=O)[C@@H](C)S2)OCO4)cc1)OCC,,
,"CCOP(=O)(Cc1ccc(NC(=O)[C@H]2Cc3cc4c(cc3C(=O)[C@H](C)S2)OCO4)cc1)OCC [Example 1, (2R,4S)-(−)-N-[4-(Diethoxyphosphorylmethyl)phenyl]-1,2,4,5-tetrahydro-4-methyl-7,8-methylenedioxy-5-oxo-3-benzothiepin-2-carboxamide]",1635.5 ± 169.7 nmol p-nitrophenol/min/well,682.5 ± 123.2 nmol p-nitrophenol/min/well
